From PubChem BioAssay (NCI) come the findings set out here.

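1) Cells in 96-well plates. 2) Compound, 48 h, 5 concentrations. 3) Linear interpolation between surrounding doses. 4) Unreached endpoint = highest concentration. Here, GI50 denotes the concentration required for 50% inhibition of growth. TGI denotes the concentration required for complete inhibition of growth.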 Where only a bound is given, the exact number is not on record here.

Test systems include EKVX NSCLC; HCT-116 colon; MALME-3M melanoma; RPMI-8226 leukemia; RXF 393 renal; SK-MEL-5 melanoma; SK-OV-3 ovarian; SNB-19 CNS; HL-60(TB) leukemia; HOP-92 NSCLC.
Common to all, as to experiment: NCI-60 cell line screen, 48 h

In the case of `O=C(Nc1ccncc1)C(=O)c1cn(S(=O)(=O)c2ccc(F)cc2)c2ccccc12`, the GI50 is 3.9 µM in the assay with EKVX NSCLC; 0.781 µM in the assay with HCT-116 colon; 1.61 µM in the assay with MALME-3M melanoma; 2.54 µM in the assay with RPMI-8226 leukemia; 2.6 µM with RXF 393 renal; 1.84 µM in the assay with SK-MEL-5 melanoma. Further, the values for the GI50 with SK-OV-3 ovarian and in the assay with SNB-19 CNS were 22.3 µM and 19.5 µM, respectively. Besides, the TGI in the assay on EKVX NSCLC was over 100 µM; with HCT-116 colon, 34.1 µM; with MALME-3M melanoma, 88.8 µM; in the assay with RPMI-8226 leukemia, over 100 µM; in the assay with RXF 393 renal it was 8.72 µM; with SK-MEL-5 melanoma it was 16.3 µM. In addition, the TGI with SK-OV-3 ovarian was 85.9 µM; in the assay with SNB-19 CNS, over 100 µM.

For the compound `CN(C)CC[PH+](c1ccccc1)c1ccccc1.CN(C)CC[PH+](c1ccccc1)c1ccccc1.[Cl-].[Pd+2]`, the GI50 in the assay with EKVX NSCLC is over 100 µM; in the assay on HCT-116 colon it was over 100 µM; in the assay on HL-60(TB) leukemia, over 100 µM; with HOP-92 NSCLC, over 100 µM; with MALME-3M melanoma, over 100 µM; with RPMI-8226 leukemia, 99.8 µM. For the same compound, the GI50 with SK-MEL-5 melanoma, in the assay with SK-OV-3 ovarian and in the assay on SNB-19 CNS was over 100 µM throughout. Besides, the TGI in the assay on EKVX NSCLC, with HCT-116 colon, in the assay with HL-60(TB) leukemia, in the assay with HOP-92 NSCLC, in the assay with MALME-3M melanoma and with RPMI-8226 leukemia was over 100 µM throughout. Moreover, the TGI with SK-MEL-5 melanoma, in the assay with SK-OV-3 ovarian and in the assay with SNB-19 CNS was over 100 µM in each case.

Consider `N#C/C1=C(\N)CCSSSC1`, for which the TGI in the assay with EKVX NSCLC is over 100 µM; in the assay on HCT-116 colon it was over 100 µM; with HOP-92 NSCLC, 95.6 µM; in the assay on MALME-3M melanoma it was over 100 µM; in the assay on RPMI-8226 leukemia it was over 100 µM; in the assay with RXF 393 renal, over 100 µM. Also, the TGI is 60.9 µM in the assay on SK-MEL-5 melanoma, over 100 µM in the assay with SK-OV-3 ovarian and over 100 µM with SNB-19 CNS.

Take `COc1ccc2[nH]cc(C3(c4c[nH]c5ccc(OC)cc45)C(=O)Nc4ccc(F)cc43)c2c1`: the GI50 was 2.35 µM in the assay with EKVX NSCLC; 1.76 µM with HCT-116 colon; 2.39 µM in the assay on HOP-92 NSCLC; 2.44 µM with MALME-3M melanoma; 4.41 µM in the assay on RPMI-8226 leukemia; 2.31 µM with RXF 393 renal. The GI50 in the assay on SK-MEL-5 melanoma is 1.98 µM; in the assay on SK-OV-3 ovarian, 3.59 µM; in the assay with SNB-19 CNS, 3.28 µM. In addition, the TGI is 8.07 µM with EKVX NSCLC; 3.16 µM in the assay on HCT-116 colon; 9.24 µM with HOP-92 NSCLC; 22.4 µM with MALME-3M melanoma; over 100 µM with RPMI-8226 leukemia; 6.54 µM with RXF 393 renal. Also, the TGI in the assay with SK-MEL-5 melanoma was found to be 4.77 µM; with SK-OV-3 ovarian, 13.5 µM; with SNB-19 CNS it was 14.6 µM.

In the case of `C=C(C)[C@@H]1CC[C@]2(C)[C@H](CC=C3[C@@H]4CC(C)(C)CC[C@]4(C(N)=O)CC[C@]32C)[C@@]1(C)CCC#N`, the GI50 with EKVX NSCLC was 3.6 µM; in the assay with HOP-92 NSCLC, 2.37 µM; in the assay with MALME-3M melanoma it was 2.24 µM; in the assay on RPMI-8226 leukemia, 1.94 µM; in the assay with RXF 393 renal, 2.34 µM; in the assay with SK-MEL-5 melanoma, 1.83 µM. In addition, the results for the GI50 with SK-OV-3 ovarian and in the assay with SNB-19 CNS were 4.62 µM and 4.05 µM, respectively. Moreover, the TGI in the assay on EKVX NSCLC is over 100 µM; in the assay with HOP-92 NSCLC, 6.62 µM; with MALME-3M melanoma, 5.91 µM; in the assay with RPMI-8226 leukemia, 5.54 µM; with RXF 393 renal, 5.11 µM; in the assay on SK-MEL-5 melanoma, 3.31 µM. Also, the TGI in the assay on SK-OV-3 ovarian and in the assay with SNB-19 CNS was over 100 µM each time.

As to `COc1ccc2c(c1)C(=O)c1c-2c(N2CCN(C(=O)CNCCNCCO)CC2)nc2ccccc12`, the GI50 was 7.15 µM with EKVX NSCLC; 1.59 µM in the assay on HCT-116 colon; 2.47 µM in the assay on HOP-92 NSCLC; 2.55 µM with MALME-3M melanoma; 2.04 µM with RPMI-8226 leukemia; 13.3 µM in the assay on SK-MEL-5 melanoma. Moreover, the figures for the GI50 with SK-OV-3 ovarian and with SNB-19 CNS were 13.7 µM and 11.1 µM, respectively. In addition, the TGI in the assay on EKVX NSCLC came to 19.7 µM; with HCT-116 colon, 3.07 µM; in the assay on HOP-92 NSCLC, 9.68 µM; in the assay on MALME-3M melanoma, 5.97 µM; in the assay with RPMI-8226 leukemia, 4.68 µM; in the assay with SK-MEL-5 melanoma, 27.5 µM. Besides, the TGI amounted to 28.2 µM in the assay with SK-OV-3 ovarian and 28.4 µM in the assay on SNB-19 CNS.

As to `COC(=O)C(Cc1nc2ccc(Cl)cc2[nH]c1=O)/C(=N\N)C(=O)Nc1cc(C)c(Cl)cc1S(=O)(=O)O` (configuration not stated), the TGI in the assay on EKVX NSCLC, in the assay on HCT-116 colon, in the assay with HOP-92 NSCLC, in the assay with MALME-3M melanoma, in the assay with RPMI-8226 leukemia and with SK-MEL-5 melanoma was over 100 µM in each case. In addition, the TGI in the assay with SK-OV-3 ovarian and in the assay with SNB-19 CNS was over 100 µM in each case.

Consider `O=c1ccn([C@H]2CSC[C@@H](CO)C2)c(=O)[nH]1`, for which the TGI in the assay with EKVX NSCLC, in the assay with HCT-116 colon, in the assay on HL-60(TB) leukemia, in the assay on HOP-92 NSCLC, in the assay with MALME-3M melanoma and with RPMI-8226 leukemia was over 100 µM in each case. The TGI in the assay with SK-MEL-5 melanoma, with SK-OV-3 ovarian and in the assay on SNB-19 CNS was over 100 µM in each case.

For `CC12CP(=O)(c3ccccc3)CC1C2(Cl)Cl` (configuration not stated), the TGI in the assay with EKVX NSCLC, in the assay with HCT-116 colon, with RPMI-8226 leukemia, in the assay with RXF 393 renal, in the assay on SK-MEL-5 melanoma and in the assay on SK-OV-3 ovarian was over 100 µM in each case. Further, the TGI with SNB-19 CNS is over 100 µM.

As for `[N-]=[N+]=N[C@H]1C[C@@H](CO)O[C@H]1n1cnc2c(N)ncnc21`, the TGI in the assay with EKVX NSCLC, with HCT-116 colon, in the assay on HL-60(TB) leukemia, in the assay on HOP-92 NSCLC, in the assay with MALME-3M melanoma and in the assay on SK-MEL-5 melanoma was over 100 µM each time. Moreover, in the assay with SNB-19 CNS, the TGI was over 100 µM.

On to `Cc1[nH]c2ccccc2c1C(=O)/C=C/c1ccccc1O`, for which the TGI in the assay on EKVX NSCLC, in the assay on HCT-116 colon, with HL-60(TB) leukemia, in the assay with MALME-3M melanoma, in the assay on RXF 393 renal and in the assay on SK-MEL-5 melanoma was over 100 µM each time. In addition, the TGI in the assay with SK-OV-3 ovarian and in the assay on SNB-19 CNS was over 100 µM throughout.
